Results: patent publication US20220112309A1, “BISPECIFIC ANTIBODY AGAINST CD3 AND CD20 IN COMBINATION THERAPY FOR TREATING DIFFUSE LARGE B-CELL LYMPHOMA” (GENMAB A/S, priority 2020, published 2022)

Columns and labels:
[1] = system: SU-DHL-4; assay type: cell-based; conditions: SU-DHL-4 cells, 48 hours
Protocol: (§1) Briefly, human Burkitt lymphoma (Raji) and DLBCL (SU-DHL-4) cell lines were used as target cells. Cells were cultured in culture medium (RPMI 1640 with HEPES and L-Glutamine supplemented with 10% heat-inactivated donor bovine serum with iron, and 1% [v/v] penicillin/streptomycin) to which 2 mM L-glutamine and 1 mM sodium pyruvate were added, at 37° C., 5% CO2. T cells, isolated from human healthy donor buffy coats (Sanquin) by negative selection using the RosetteSep™ Human T Cell Enrichment Cocktail (Stemcell Technologies), followed by density centrifugation over a Ficoll gradient, both according to the manufacturer's instructions, were used as effector cells. Isolated cells were washed twice in phosphate buffered saline (PBS) and counted using acridine orange/propidium iodide (AO/PI) viability staining solution (Nexcelom Bioscience) on a Cellometer® Auto 2000 Cell Viability Counter. […] B-cell viability and T-cell activation were measured by flow cytometry (count of CD22-positive cells; expression of the T-cell activation markers CD69, CD25, programmed cell death protein 1 (PD-1), and CD107 [lysosomal associated membrane protein 1; LAMP-1] on CD4+ and CD8+ T cells). Absolute cell numbers were determined by adding Accucheck Counting beads (100 μL/well) (Thermofisher) and calculated as follows:
(§2) Correction factor=([bead count1+bead count2]/average bead countplate)
(§3) Absolute cell number=[cell countsample/correction factor] • The percentage cytotoxicity was calculated as follows:
(§4) % cytotoxicity=100−([absolute cell numbersample/absolute cell numberno antibody]×100%)

[2] = system: Raji; assay type: cell-based; conditions: 48 hours
Protocol: as §1, §2, §3, §4

[3] = system: SU-DHL-4; experiment: in vitro T-cell activation assay, T cells incubated with SU-DHL-4 cells; assay type: cell-based, human; conditions: SU-DHL-4 target cells, 48 hours
Protocol: as §1, with “follows: […]” for “follows:”

[4] = system: Raji; experiment: in vitro T-cell activation assay, T cells incubated with Raji cells; assay type: cell-based, human; conditions: Raji target cells, 48 hours
Protocol: as §1, with “follows: […]” for “follows:”

[5] = system: R/R B-NHL; experiment: ongoing clinical trial of epcoritamab monotherapy (NCT03625037); assay type: in vivo
Source text: Epcoritamab as monotherapy is currently in a clinical trial for the treatment of relapsed/refractory (R/R) B-NHL (ClinicalTrials.gov Identifier: NCT03625037).

[6] = gemcitabine and/or oxaliplatin at EC30 concentrations, with or without epcoritamab
[7] = epcoritamab 0.01 pg/mL-100 ng/mL, flow cytometry
[8] = gemcitabine 1 nM, oxaliplatin 0.3 μM
[9] = epcoritamab alone 0.01 pg/mL-100 ng/mL

Compound	cytotoxicity of B cells [1, 6]	cytotoxicity of B cells [2, 6]	T-cell activation (upregulation of CD69, CD25, PD-1, and LAMP-1 expression) [3, 7]	Epcoritamab-induced T-cell activation in the presence of gemcitabine, oxaliplatin, or the combination [3, 8]	T-cell activation (upregulation of CD69, CD25, PD-1, and LAMP-1 expression) [4, 7]	Epcoritamab-induced T-cell activation in the presence of gemcitabine, oxaliplatin, or the combination [4, 8]	T-cell-mediated cytotoxicity (decrease in the number of viable B cells) [1, 9]	T-cell-mediated cytotoxicity (decrease in the number of viable B cells) [2, 9]	dose-limiting toxicities ([5]; human, in vivo)	tolerated dose ([5]; monotherapy, R/R B-NHL patients, preliminary data)
Nc1ccn(C2OC(CO)C(O)C2(F)F)c(=O)n1 (stereo not shown) [gemcitabine, 4-amino-1-[3,3-difluoro-4-hydroxy-5-(hydroxymethyl)oxolan-2-yl]-1,2-dihydropyrimidin-2-one, reference compound]	induced cytotoxicity of B cells	induced cytotoxicity of B cells	–	–	–	–	–	–	–	–
epcoritamab: IgG1 bispecific CD3xCD20 antibody; heavy and light chain pairs of SEQ ID NOs: 24 and 25, and 26 and 27; CAS 2134641-34-0	–	–	concentration-dependent activation of both CD4+ (data not shown) and CD8+ T cells	not affected	concentration-dependent activation of both CD4+ (data not shown) and CD8+ T cells	not affected	concentration-dependent T-cell-mediated cytotoxicity	concentration-dependent T-cell-mediated cytotoxicity	no dose-limiting toxicities reported	tolerated at doses up to at least 48 mg, including 60 mg
